According to ChEMBL document CHEMBL3886728, “Dihydrobenzoxazine and tetrahydroquinoxaline sodium channel inhibitors” (2016):

How the values were obtained:
[1] = biological target: T1, Sodium channel protein type 9 subunit alpha (Homo sapiens, UniProt Q15858); test: In Vitro PX Assay: HEK 293 cells stably transfected with human Nav1.7 were recorded in whole cell voltage clamp mode with the PatchXpress automated electrophysiology system (Molecular Devices, LLC, Sunnyvale, Calif.). Compound effects were measured on a partially inactivated state of the sodium channel. Cells were clamped to a holding potential yielding 20 to 50% inactivation. To elicit sodium current, channels were activated by pulsing to −10 mV for 20 msec. This voltage protocol was repeated at a rate of 0.1 Hz throughout the experiment. A single concentration of test compound was applied to cells for a duration of 3 minutes.; format: cell-based
[2] = biological target: T1, Sodium channel protein type 9 subunit alpha; test: In Vitro Assay: HEK 293 cells stably transfected with either Nav 1.7 or with Nav 1.5 were recorded in population patch-clamp mode with the IonWorks® Quattro automated electrophysiology system in accordance with the manufacturer's specifications (Molecular Devices, LLC, Sunnyvale, Calif.). Sodium channel currents were measured in response to a train of depolarizations that induced successively greater inactivation. Cells were held at −110 mV for three seconds (Nav 1.7) or half a second (Nav 1.5) from a holding voltage of −15 mV, then put through a series of 26 pulses of 150 msec duration to −20 mV at a frequency of 5 Hz. Cells were then left unclamped for a period of 3 to 8 minutes while a single concentration of test compound was added. Cells were then reclamped and put through the same voltage protocol. Current at the end of the 26th pulse to −20 mV was subtracted from the peak current evoked by the 26th pulse to −20 mV to correct for leak current.; format: cell-based

T1 sequence (Q15858 whole entry): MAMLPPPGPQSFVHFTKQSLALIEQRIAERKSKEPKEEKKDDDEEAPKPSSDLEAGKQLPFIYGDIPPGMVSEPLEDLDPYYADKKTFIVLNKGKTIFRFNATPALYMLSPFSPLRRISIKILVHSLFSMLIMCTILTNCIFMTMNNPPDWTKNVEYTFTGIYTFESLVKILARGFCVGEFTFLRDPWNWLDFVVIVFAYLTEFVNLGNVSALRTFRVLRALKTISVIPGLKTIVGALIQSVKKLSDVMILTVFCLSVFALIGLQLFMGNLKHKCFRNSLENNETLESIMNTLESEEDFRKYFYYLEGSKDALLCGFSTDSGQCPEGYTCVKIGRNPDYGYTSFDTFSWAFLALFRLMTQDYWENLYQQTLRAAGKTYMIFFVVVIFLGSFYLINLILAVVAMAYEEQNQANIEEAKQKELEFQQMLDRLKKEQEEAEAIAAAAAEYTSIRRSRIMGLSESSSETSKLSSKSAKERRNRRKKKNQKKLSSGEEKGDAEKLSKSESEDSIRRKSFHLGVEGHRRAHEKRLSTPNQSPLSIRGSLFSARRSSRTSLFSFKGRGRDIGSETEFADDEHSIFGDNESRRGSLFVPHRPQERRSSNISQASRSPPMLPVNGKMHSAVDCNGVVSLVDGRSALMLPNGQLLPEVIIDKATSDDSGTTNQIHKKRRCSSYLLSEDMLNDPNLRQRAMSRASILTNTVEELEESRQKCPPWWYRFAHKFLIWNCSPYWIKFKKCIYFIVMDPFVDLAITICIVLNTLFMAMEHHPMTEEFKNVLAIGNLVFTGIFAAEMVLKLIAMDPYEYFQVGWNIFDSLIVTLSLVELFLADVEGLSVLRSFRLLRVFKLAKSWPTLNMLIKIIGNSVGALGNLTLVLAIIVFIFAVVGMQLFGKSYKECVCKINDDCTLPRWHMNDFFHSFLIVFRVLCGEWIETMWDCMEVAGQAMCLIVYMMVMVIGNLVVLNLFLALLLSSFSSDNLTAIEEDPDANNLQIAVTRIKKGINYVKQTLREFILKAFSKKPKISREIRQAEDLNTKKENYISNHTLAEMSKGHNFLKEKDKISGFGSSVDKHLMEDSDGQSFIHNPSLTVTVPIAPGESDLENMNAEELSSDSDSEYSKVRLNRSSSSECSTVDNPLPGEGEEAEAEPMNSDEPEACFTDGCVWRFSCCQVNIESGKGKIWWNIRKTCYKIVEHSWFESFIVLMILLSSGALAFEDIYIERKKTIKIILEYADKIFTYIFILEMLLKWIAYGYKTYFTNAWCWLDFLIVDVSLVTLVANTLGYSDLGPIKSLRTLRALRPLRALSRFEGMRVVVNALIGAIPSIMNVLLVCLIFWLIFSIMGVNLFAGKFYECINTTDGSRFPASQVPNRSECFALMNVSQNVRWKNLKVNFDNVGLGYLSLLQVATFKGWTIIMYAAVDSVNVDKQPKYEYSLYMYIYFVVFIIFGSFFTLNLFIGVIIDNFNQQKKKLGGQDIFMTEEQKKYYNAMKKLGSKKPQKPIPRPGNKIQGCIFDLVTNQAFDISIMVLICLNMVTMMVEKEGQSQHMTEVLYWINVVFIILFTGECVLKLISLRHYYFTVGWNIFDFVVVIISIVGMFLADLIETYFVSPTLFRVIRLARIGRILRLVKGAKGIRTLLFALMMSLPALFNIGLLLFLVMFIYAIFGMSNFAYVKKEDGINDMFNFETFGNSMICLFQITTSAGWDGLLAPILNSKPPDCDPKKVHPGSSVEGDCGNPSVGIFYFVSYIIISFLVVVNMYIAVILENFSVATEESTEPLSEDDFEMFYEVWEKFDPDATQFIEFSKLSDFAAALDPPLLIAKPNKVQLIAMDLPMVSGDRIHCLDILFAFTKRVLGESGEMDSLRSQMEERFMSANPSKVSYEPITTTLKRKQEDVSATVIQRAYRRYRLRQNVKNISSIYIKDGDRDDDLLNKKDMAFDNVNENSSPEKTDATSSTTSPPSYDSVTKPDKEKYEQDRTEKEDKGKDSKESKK

Row | IC50 [1] [nM] | SMILES | IC50 [2] [nM]
1 | 1820 | O=S(=O)(Nc1nccs1)c1ccc2c(c1)OCCN2c1ccc(F)cc1F | 191
2 | 961 | O=S(=O)(Nc1nccs1)c1ccc2c(c1)OCCN2c1cccc(Cl)c1Cl | 274
3 | 13800 | COc1ccc(N2CCOc3cc(S(=O)(=O)Nc4nccs4)ccc32)c(C#N)c1 | 2690
4 | 5760 | O=S(=O)(Nc1nccs1)c1ccc2c(c1)OCCN2c1cccc2scnc12 | 3760
5 | 8020 | O=S(=O)(Nc1nccs1)c1ccc2c(c1)OCCN2c1ccccc1C(F)(F)F | 1660
6 | 3190 | N#Cc1ccc(F)c(N2CCOc3cc(S(=O)(=O)Nc4nccs4)ccc32)c1 | 727
7 | 4500 | O=S(=O)(Nc1nccs1)c1ccc2c(c1)OCCN2c1ncc(Cl)cc1Cl | 397
8 | 364 | CN1CC=C(c2cc(C(F)(F)F)ccc2N2CCOc3cc(S(=O)(=O)Nc4ccncn4)ccc32)CC1 | 4.5
9 | 7100 | O=C1CCCc2ccc(N3CCOc4cc(S(=O)(=O)Nc5nccs5)ccc43)cc21 | 1100
10 | 1110 | O=S(=O)(Nc1nccs1)c1ccc2c(c1)OCCN2c1cc(F)ccc1F | 114
11 | 1550 | Cc1ccc(N2CCOc3cc(S(=O)(=O)Nc4nccs4)ccc32)cc1Cl | 733
12 | 2370 | Cc1cc(N2CCOc3cc(S(=O)(=O)Nc4nccs4)ccc32)cc(C)c1N(C)C | 808
13 | 416 | Cc1c(Cl)cccc1N1CCOc2cc(S(=O)(=O)Nc3nccs3)ccc21 | 601
14 | 13700 | O=S(=O)(Nc1nccs1)c1ccc2c(c1)OCCN2c1ccc(-n2ccnc2)cc1 | 2690
15 | 2850 | CCOc1cccc(N2CCOc3cc(S(=O)(=O)Nc4nccs4)ccc32)c1 | 742
16 | 306 | CC(C)(C)OC(=O)N1CC=C(c2cc(C(F)(F)F)ccc2N2CCOc3cc(S(=O)(=O)Nc4ncns4)ccc32)CC1 | 81.8
17 |  | Cc1ccc(N2CCOc3cc(S(=O)(=O)Nc4nccs4)ccc32)cc1F | 7370

Row | SMILES | IC50 [1] [nM] | IC50 [2] [nM]
18 | COc1cccc(N2CCOc3cc(S(=O)(=O)Nc4nccs4)ccc32)c1 | 2070 | 141
19 | COc1cc(C#N)ccc1N1CCOc2cc(S(=O)(=O)Nc3ccncn3)ccc21 | 910 | 
